Values of other authors, collected in paper PMC10287555, “Camonsertib in DNA damage response-deficient advanced solid tumors: phase 1 trial results” (Nature Medicine, 2023).

Tested on: advanced solid tumors
Conditions: combination with gemcitabine; cited from earlier work

CNCc1ccc(-c2cc(-c3nc(-c4ccc(S(=O)(=O)C(C)C)cc4)cnc3N)on2)cc1 [berzosertib]
Response rate in TMB-H NSCLC versus patients without elevated TMB: higher response rates
